Results published in patent US7030093B2, “Antibiotic coating for porous bodies and method for its production as well as its use” (HERAEUS Kulzer GmbH & Co. KG, priority 2002, dated 2006).

Experiment: Release of the antibiotic from the salts in an aqueous environment (finding in words)
Type: physicochemical
Conditions: method not given

Release of the underlying antibiotic in an aqueous environment, in a delayed fashion:
Amikacin laurate, amikacin dodecyl sulfate, amikacin myristate
